Data taken from patent US20260201008A1, “SECRETIN-DERIVED GLP1R SELECTIVE AGONISTS” (GUBRA A/S, priority 2023, published 2026).
≈ marks a conversion by molar mass, not a printed value. Read-outs that look alike come from different tables or passages of the source. Numbered stars: 1 amine (or outer) side, 2 acyl side, 3 side chain; on linkers, the order of the positions; unused ones are H or OH. Square brackets hold non-standard residues; d marks the D form. Side chains are listed from the residue outwards. Ends that are not written are not given here. Peptide text beside a SMILES is read from it. * marks the point of attachment. C20 diacid = O=C(O)CCCCCCCCCCCCCCCCCCC(=O)*; γGlu = O=C(O)[C@H](CCC(=O)[*:2])N[*:1]; AEEA = NCCOCCOCC(=O)O; Aib = CC(C)(N)C(=O)O

Experiments:
GLP1R = GLP1R (Homo sapiens, UniProt P43220); assay: hGLP1R potency, cAMP accumulation in CHO-K1 cells stably overexpressing hGLP1R; format: cell-based; design: host or cells: CHO-K1; settings: for Selectivity: SCTR EC50/GLP1R EC50 ratio
Sequence of GLP1R (P43220 24-463): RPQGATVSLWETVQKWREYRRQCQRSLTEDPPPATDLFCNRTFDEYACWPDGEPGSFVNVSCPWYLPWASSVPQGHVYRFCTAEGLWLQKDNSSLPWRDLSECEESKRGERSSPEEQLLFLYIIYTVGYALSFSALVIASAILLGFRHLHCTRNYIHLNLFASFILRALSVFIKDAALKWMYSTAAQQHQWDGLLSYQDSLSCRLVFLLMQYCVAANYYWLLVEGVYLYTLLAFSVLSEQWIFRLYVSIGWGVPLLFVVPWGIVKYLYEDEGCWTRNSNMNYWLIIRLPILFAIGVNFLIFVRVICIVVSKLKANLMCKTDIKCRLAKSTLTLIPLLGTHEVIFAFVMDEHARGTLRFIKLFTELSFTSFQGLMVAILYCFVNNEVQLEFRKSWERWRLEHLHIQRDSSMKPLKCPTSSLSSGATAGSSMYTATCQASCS
Summary of the method: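 Potency reflects cAMP accumulation measured by time-resolved fluorescence energy transfer after a 30 min room-temperature stimulation in IBMX-containing (0.5 mM) DPBS with casein. Purified peptides were tested in duplicate over eleven threefold dilutions, and EC50 was obtained from sigmoid concentration-response fitting.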

SCTR = SCTR (Homo sapiens, UniProt P47872); assay: hSCTR potency, cAMP accumulation in CHO-K1 cells stably overexpressing hSCTR; format: cell-based; design: alternatively Euroscreen ES-712-AF; FAST-0161L; host or cells: CHO-K1
Sequence of SCTR (P47872 23-440): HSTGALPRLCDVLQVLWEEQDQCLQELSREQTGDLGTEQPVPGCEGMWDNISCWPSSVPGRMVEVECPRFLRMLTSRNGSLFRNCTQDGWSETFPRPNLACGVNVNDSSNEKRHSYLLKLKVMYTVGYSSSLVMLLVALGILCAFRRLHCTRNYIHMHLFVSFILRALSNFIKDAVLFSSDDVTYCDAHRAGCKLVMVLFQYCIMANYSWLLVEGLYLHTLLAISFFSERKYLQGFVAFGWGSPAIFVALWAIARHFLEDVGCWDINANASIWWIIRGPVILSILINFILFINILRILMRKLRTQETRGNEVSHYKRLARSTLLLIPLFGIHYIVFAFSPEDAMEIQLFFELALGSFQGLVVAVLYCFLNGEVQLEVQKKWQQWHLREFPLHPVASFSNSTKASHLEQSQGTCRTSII
Summary of the method: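 Potency reflects cAMP accumulation after 30 min agonist exposure at room temperature in hSCTR-expressing CHO-K1 cells, with 0.5 mM IBMX present to block phosphodiesterase. EC50 was derived by nonlinear regression.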

[1] = Turbidity of crude library peptides (absorbance at 600 nm); format: physicochemical; settings: Physical stability of peptides
Summary of the method: (§1)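 Values reflect mean ThT emission (ex 450, em 480 nm) over 72 h at 40° C, read every 10 min after 5 min shaking at 700 rpm, plus a single initial absorbance at 600 nm for turbidity. Peptides were at 267 μM, pH 4.0 acetate or pH 7.0 phosphate (50 mM), with 4 μM ThT.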

[2] = Thioflavin T fibril formation assay of purified peptides; format: physicochemical; settings: 267 μM, phosphate buffer pH 7.0, 96 h at 40° C.
Protocol: Thioflavin T fibril formation assay: Peptides are dissolved as 267 μM in 50 mM phosphate buffer pH 7.0 for 2 h at room temperature on a rocking table. The samples were then divided into three replicates of 80 μl/well and mixed with 2 μl/well Thioflavin T (ThT) to a final concentration of 4 μM ThT in a black 384 well microplate with a clear bottom (Greiner #781096). The plate is inserted in a CLARIOstar Plus microplate reader (BMG Labtech) and fibril formation is measured as an increase in fluorescence emission at 480 nm (excitation at 450 nm) during 96 h at 40° C. with cycles of 5 min rest and 5 min linear shaking at 700 rpm.

[3] = Fibril formation of crude library peptides (Thioflavin T); format: physicochemical; design: key: average ThT fluorescence emission at 480 nm (ex 450 nm), raw units; settings: Physical stability of peptides
Summary of the method: as §1

[4] = Solubility of purified peptides; format: physicochemical; settings: 100 mM phosphate buffer, target pH 7.0, target approximately 10 mg/mL
Protocol: Solubility was tested in the following vehicles: 100 mM phosphate buffer facilitating a target pH of 7.0. Samples were directly dissolved in Mini-UniPrep Syringeless Filter 0.45 μm unit (Whatman). For the desired concentration, such as a concentration of approximately 10 mg/mL, 1050 nmol of peptide was dissolved in 400 μL vehicle. Samples were incubated for at least 1 h at room temperature on a rocking table. The pH was measured and adjusted. Samples were left on the rocking table for an additional hour before a second pH measurement and adjustment. Visual inspection was performed and noted before the filter was pushed. The concentration of peptide in the filtrate was determined using CAD (Charged Aerosol Detection), double determination was done for each sample. The measured concentration was reported in μM. Furthermore, the pH of the filtrate was measured and reported. Peptides with a measured concentration within +/−20% of target concentration are considered fully soluble.

[5] = molecular target: human GLP-1 receptor (hGLP1R) (human, UniProt P43220 24-463); assay: cell-based or functional assay
[6] = molecular target: human secretin receptor (hSCTR) (human, UniProt P47872 23-440); assay: cell-based or functional assay
Sequence of human secretin receptor (hSCTR) (P47872 23-440): as above

Molecule	Selectivity (GLP1R; purified peptides)	Fibril formation [2]	solubility [4]	pEC50 hGLPR1 [5]	pEC50 hSCTR [6]	also measured
CC(C)C[C@H](NC(=O)[C@H](Cc1ccccc1)NC(=O)[C@H](CCCNC(=N)N)NC(=O)[C@H](CCC(N)=O)NC(=O)[C@H](CC(C)C)NC(=O)C(C)(C)NC(=O)[C@H](C)NC(=O)[C@H](CCC(=O)O)NC(=O)[C@H](CCC(=O)O)NC(=O)[C@H](CCCCNC(=O)COCCOCCNC(=O)COCCOCCNC(=O)CC[C@H](NC(=O)CCCCCCCCCCCCCCCCCCC(=O)O)C(=O)O)NC(=O)[C@H](CC(C)C)NC(=O)[C@H](CCC(=O)O)NC(=O)[C@H](CO)NC(=O)[C@@H](NC(=O)[C@H](CC(=O)O)NC(=O)[C@H](CO)NC(=O)[C@@H](NC(=O)[C@H](Cc1ccccc1)NC(=O)[C@@H](NC(=O)CNC(=O)[C@H](CCC(=O)O)NC(=O)C(C)(C)NC(=O)[C@@H](N)Cc1c[nH]cn1)[C@@H](C)O)[C@@H](C)O)C(C)C)C(=O)N[C@@H](CCC(=O)O)C(=O)N[C@@H](Cc1c[nH]cn1)C(=O)N[C@@H](CC(C)C)C(=O)N[C@H](C(N)=O)C(C)C [compound 168] (H-H[Aib]EGTFTSDVSELK([AEEA-AEEA-γGlu-C20 diacid])EEA[Aib]LQRFLEHLV-NH2)	8333	No	9.8 mg/mL (≈ 2560 µM)			EC50 (GLP1R; cAMP accumulation, CHO-K1 cells overexpressing hGLP1R, read-out: hGLP1R pEC50 (converted)): 0.00631 nM; SCTR EC50/GLP1R EC50 ratio (GLP1R; selectivity for hGLP1R over hSCTR, cAMP accumulation in CHO-K1 cells): 6853; EC50 (SCTR; cAMP accumulation, CHO-K1 cells overexpressing hSCTR, read-out: hSCTR pEC50 (converted)): 50.1 nM; EC50 (SCTR; purified peptides, read-out: hSCTR EC50): 100 nM; Turbidity (pH 7) [1]: 0.08; Fibril formation [3]: 2998
CC(C)C[C@H](NC(=O)[C@H](Cc1ccccc1)NC(=O)[C@H](CCCNC(=N)N)NC(=O)[C@H](CCC(N)=O)NC(=O)[C@H](CC(C)C)NC(=O)C(C)(C)NC(=O)[C@H](C)NC(=O)[C@H](CCC(=O)O)NC(=O)[C@H](CCC(=O)O)NC(=O)[C@H](CCCCNC(=O)COCCOCCNC(=O)COCCOCCNC(=O)CC[C@H](NC(=O)CCCCCCCCCCCCCCCCCCC(=O)O)C(=O)O)NC(=O)[C@H](CC(C)C)NC(=O)[C@H](Cc1ccc(O)cc1)NC(=O)[C@H](CO)NC(=O)[C@@H](NC(=O)[C@H](CC(=O)O)NC(=O)[C@H](CO)NC(=O)[C@@H](NC(=O)[C@H](Cc1ccccc1)NC(=O)[C@@H](NC(=O)CNC(=O)[C@H](CCC(=O)O)NC(=O)C(C)(C)NC(=O)[C@@H](N)Cc1c[nH]cn1)[C@@H](C)O)[C@@H](C)O)C(C)C)C(=O)N[C@@H](CCC(=O)O)C(=O)N[C@@H](Cc1c[nH]cn1)C(=O)N[C@@H](CC(C)C)C(=O)N[C@H](C(=O)N[C@@H](CCC(=O)O)C(=O)N[C@@H](C)C(=O)N[C@@H](C)C(N)=O)C(C)C [compound 209] (H-H[Aib]EGTFTSDVSYLK([AEEA-AEEA-γGlu-C20 diacid])EEA[Aib]LQRFLEHLVEAA-NH2)	33673	No	11 mg/mL (≈ 2660 µM)			Selectivity (GLP1R; Table 2, extended 30 amino acid peptides): 34167; EC50 (GLP1R; Table 2, extended 30 amino acid peptides, read-out: PEC50 hGLPR1 (converted)): 0.0126 nM; EC50 (SCTR; Table 2, extended 30 amino acid peptides, read-out: pEC50 hSCTR (converted)): 398 nM
H[Aib]EGTFTSDISRLLEGAALQRFIQWLV-NH2 (N-terminus assumed; SMILES CC[C@H](C)[C@H](NC(=O)[C@H](Cc1ccccc1)NC(=O)[C@H](CCCNC(=N)N)NC(=O)[C@H](CCC(N)=O)NC(=O)[C@H](CC(C)C)NC(=O)[C@H](C)NC(=O)[C@H](C)NC(=O)CNC(=O)[C@H](CCC(=O)O)NC(=O)[C@H](CC(C)C)NC(=O)[C@H](CC(C)C)NC(=O)[C@H](CCCNC(=N)N)NC(=O)[C@H](CO)NC(=O)[C@@H](NC(=O)[C@H](CC(=O)O)NC(=O)[C@H](CO)NC(=O)[C@@H](NC(=O)[C@H](Cc1ccccc1)NC(=O)[C@@H](NC(=O)CNC(=O)[C@H](CCC(=O)O)NC(=O)C(C)(C)NC(=O)[C@@H](N)Cc1c[nH]cn1)[C@@H](C)O)[C@@H](C)O)[C@@H](C)CC)C(=O)N[C@@H](CCC(N)=O)C(=O)N[C@@H](Cc1c[nH]c2ccccc12)C(=O)N[C@@H](CC(C)C)C(=O)N[C@H](C(N)=O)C(C)C) [SEQ ID NO: 218]				10.4 -log M	7.8 -log M	
H[Aib]EGTFTSD[Aib]SRLLEGAALQRFIQWLV-NH2 (N-terminus assumed; SMILES CC[C@H](C)[C@H](NC(=O)[C@H](Cc1ccccc1)NC(=O)[C@H](CCCNC(=N)N)NC(=O)[C@H](CCC(N)=O)NC(=O)[C@H](CC(C)C)NC(=O)[C@H](C)NC(=O)[C@H](C)NC(=O)CNC(=O)[C@H](CCC(=O)O)NC(=O)[C@H](CC(C)C)NC(=O)[C@H](CC(C)C)NC(=O)[C@H](CCCNC(=N)N)NC(=O)[C@H](CO)NC(=O)C(C)(C)NC(=O)[C@H](CC(=O)O)NC(=O)[C@H](CO)NC(=O)[C@@H](NC(=O)[C@H](Cc1ccccc1)NC(=O)[C@@H](NC(=O)CNC(=O)[C@H](CCC(=O)O)NC(=O)C(C)(C)NC(=O)[C@@H](N)Cc1c[nH]cn1)[C@@H](C)O)[C@@H](C)O)C(=O)N[C@@H](CCC(N)=O)C(=O)N[C@@H](Cc1c[nH]c2ccccc12)C(=O)N[C@@H](CC(C)C)C(=O)N[C@H](C(N)=O)C(C)C) [SEQ ID NO: 222]				9.9 -log M	6.5 -log M	
H[Aib]EGTFTSDVSRLLEGAALQRFIQWLV-NH2 (N-terminus assumed; SMILES CC[C@H](C)[C@H](NC(=O)[C@H](Cc1ccccc1)NC(=O)[C@H](CCCNC(=N)N)NC(=O)[C@H](CCC(N)=O)NC(=O)[C@H](CC(C)C)NC(=O)[C@H](C)NC(=O)[C@H](C)NC(=O)CNC(=O)[C@H](CCC(=O)O)NC(=O)[C@H](CC(C)C)NC(=O)[C@H](CC(C)C)NC(=O)[C@H](CCCNC(=N)N)NC(=O)[C@H](CO)NC(=O)[C@@H](NC(=O)[C@H](CC(=O)O)NC(=O)[C@H](CO)NC(=O)[C@@H](NC(=O)[C@H](Cc1ccccc1)NC(=O)[C@@H](NC(=O)CNC(=O)[C@H](CCC(=O)O)NC(=O)C(C)(C)NC(=O)[C@@H](N)Cc1c[nH]cn1)[C@@H](C)O)[C@@H](C)O)C(C)C)C(=O)N[C@@H](CCC(N)=O)C(=O)N[C@@H](Cc1c[nH]c2ccccc12)C(=O)N[C@@H](CC(C)C)C(=O)N[C@H](C(N)=O)C(C)C) [SEQ ID NO: 220]				10.2 -log M	7.2 -log M	
H[Aib]EGTFTSDPSRLLEGAALQRFIQWLV-NH2 (N-terminus assumed; SMILES CC[C@H](C)[C@H](NC(=O)[C@H](Cc1ccccc1)NC(=O)[C@H](CCCNC(=N)N)NC(=O)[C@H](CCC(N)=O)NC(=O)[C@H](CC(C)C)NC(=O)[C@H](C)NC(=O)[C@H](C)NC(=O)CNC(=O)[C@H](CCC(=O)O)NC(=O)[C@H](CC(C)C)NC(=O)[C@H](CC(C)C)NC(=O)[C@H](CCCNC(=N)N)NC(=O)[C@H](CO)NC(=O)[C@@H]1CCCN1C(=O)[C@H](CC(=O)O)NC(=O)[C@H](CO)NC(=O)[C@@H](NC(=O)[C@H](Cc1ccccc1)NC(=O)[C@@H](NC(=O)CNC(=O)[C@H](CCC(=O)O)NC(=O)C(C)(C)NC(=O)[C@@H](N)Cc1c[nH]cn1)[C@@H](C)O)[C@@H](C)O)C(=O)N[C@@H](CCC(N)=O)C(=O)N[C@@H](Cc1c[nH]c2ccccc12)C(=O)N[C@@H](CC(C)C)C(=O)N[C@H](C(N)=O)C(C)C) [SEQ ID NO: 221]				8.6 -log M	5.3 -log M	
